# Assays:
# [1] = target: T1, PDE4B (human recombinant) (Homo sapiens, UniProt Q07343); test: PDE4B inhibition, IMAP Fluorescence Polarisation (FP) assay; assay type: biochemical; conditions: mean of n = 3 readings; accurate to about ±0.5 log unit; read-out: PDE4B pIC50 (± about 0.5) (FP assay), Mean pIC50 value (converted)
# T1 construct: made in house; host or cells: Saccharomyces cerevisiae strain GL62 (PDE-deficient yeast)
# Source text: Human recombinant PDE4B, in particular the 2B splice variant thereof (HSPDE4B2B), is disclosed in WO 94/20079 and also M. M. McLaughlin et al., “A low Km, rolipram-sensitive, cAMP-specific phosphodiesterase from human brain: cloning and expression of cDNA, biochemical characterisation of recombinant protein, and tissue distribution of mRNA”, J. Biol. Chem., 1993, 268, 6470-6476. For example, in Example 1 of WO 94/20079, human recombinant PDE4B is described as being expressed in the PDE-deficient yeast Saccharomyces cerevisiae strain GL62, e.g. after induction by addition of 150 uM CuSO4, and 100,000×g supernatant fractions of yeast cell lysates are described for use in the harvesting of PDE4B enzyme.
# The ability of compounds to inhibit catalytic activity at PDE4B (human recombinant) or PDE4D (human recombinant) can optionally be determined by IMAP Fluorescence Polarisation (FP) assay (IMAP Explorer kit, available from Molecular Devices Corporation, Sunnydale, Calif., USA; Molecular Devices code: R8062) in 384-well format.
# The IMAP FP assay is able to measure PDE activity in an homogenous, non-radioactive assay format. […] Binding of Fl-AMP product to the beads (coated with the immobilised trivalent cations) slows the rotation of the bound Fl-AMP and leads to an increase in the fluorescence polarisation ratio of parallel to perpendicular light. […]
# [2] = target: PDE5 (human recombinant) (Homo sapiens, UniProt O76074); test: PDE5 inhibition (FP or SPA general type of assay); assay type: biochemical; conditions: in the particular assays used
# Source text: Human recombinant PDE5 is disclosed in K. Loughney et al., “Isolation and characterisation of cDNAs encoding PDE5A, a human cGMP-binding, cGMP-specific 3′,5′-cyclic nucleotide phosphodiesterase”, Gene, 1998, 216, 139-147.
# The ability of compounds to inhibit catalytic activity at PDE4B or 4D (human recombinant), PDE3 (from bovine aorta), PDE5 (human recombinant) or PDE6 (from bovine retina) can optionally be determined by Scintillation Proximity Assay (SPA) in a 96-well format.
# Test compounds (as a solution in DMSO, suitably about 2 microlitre (ul) volume of DMSO solution) are preincubated at ambient temperature (room temperature, e.g. 19-23° C.) in Wallac Isoplates (code 1450-514) with PDE enzyme in 50 mM Tris-HCl buffer pH 7.5, 8.3 mM MgCl2, 1.7 mM EGTA, 0.05% (w/v) bovine serum albumin for 10-30 minutes (usually 30 minutes). […] Bound radioactive product is measured using a WALLAC TRILUX 1450 Microbeta scintillation counter. […] Curves are analysed using ActivityBase and XLfit (ID Business Solutions Limited, 2 Ocean Court, Surrey Research Park, Guildford, Surrey GU2 7QB, United Kingdom). Results are expressed as pIC50 values.
# The compound of the invention (e.g. as prepared in Example 1) has also been tested for PDE3, PDE5 and PDE6 inhibition, e.g. using (independently for each PDE type) either a Fluorescence Polarisation (FP) general type of assay or using an SPA general type of assay.
# T1 sequence (Q07343 1-564 isoform Q07343-2): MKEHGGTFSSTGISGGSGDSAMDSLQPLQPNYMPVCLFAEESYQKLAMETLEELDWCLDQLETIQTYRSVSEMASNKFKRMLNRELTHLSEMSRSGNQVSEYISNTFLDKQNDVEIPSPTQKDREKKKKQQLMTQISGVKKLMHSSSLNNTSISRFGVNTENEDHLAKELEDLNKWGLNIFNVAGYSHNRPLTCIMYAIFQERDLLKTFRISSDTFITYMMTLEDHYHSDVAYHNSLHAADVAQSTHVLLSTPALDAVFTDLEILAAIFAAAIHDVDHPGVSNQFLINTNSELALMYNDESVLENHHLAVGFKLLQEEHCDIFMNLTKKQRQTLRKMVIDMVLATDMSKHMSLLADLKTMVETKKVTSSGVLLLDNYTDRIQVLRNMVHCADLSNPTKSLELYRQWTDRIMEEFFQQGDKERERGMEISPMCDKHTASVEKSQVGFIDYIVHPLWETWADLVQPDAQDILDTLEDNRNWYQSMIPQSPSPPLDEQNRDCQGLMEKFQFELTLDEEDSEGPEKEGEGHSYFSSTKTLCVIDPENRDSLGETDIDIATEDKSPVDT
smiles,measurement,setting,value
"CCc1nc2c(cnn2CC)c(NC2CCOCC2)c1CNC(=O)c1cc(C)no1 [Example 1, N-{[1,6-diethyl-4-(tetrahydro-2H-pyran-4-ylamino)-1H-pyrazolo[3,4-b]pyridin-5-yl]methyl}-3-methyl-5-isoxazolecarboxamide]",IC50,[1],~0.158 nM
same,PDE4B pIC50 compared with PDE5 pIC50 (selectivity),[2],"inhibits PDE4B more strongly than it inhibits PDE3, PDE5 and PDE6"

# From US20080255186A1, “Pyrazolo[3,4-B]Pyridine Compound, and Its Use as a Pde4 Inhibitor” (priority 2005, published 2008)
